In patent US10287255B2, “Compounds as histone deacetylase 6 inhibitors and pharmaceutical compositions comprising the same” (CHONG KUN DANG PHARMACEUTICAL CORP., priority 2014, dated 2019):

Legend:
[1] = target: T1, human recombinant HDAC1 (Homo sapiens, UniProt Q13547); test: HDAC1 enzyme activity inhibition assay (in vitro, fluorimetric); assay type: biochemical; settings: human recombinant HDAC1, fluorimetric kit, 30° C. 60 minutes
T1 construct: purchased Enzo Life Science BML-SE456
How it was run: (§1)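 Human recombinant enzyme (0.3 μg for HDAC1) reacted with 10 μM Fluor de Lys-SIRT1 substrate and 5-fold compound dilutions at 30 °C for 60 min, then developer for 30 min. Fluorescence read at Ex 360/Em 460; IC50 calculated. HDAC6 run by the same protocol.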

[2] = target: T2, human recombinant HDAC6 (Homo sapiens, UniProt Q9UBN7); test: HDAC6 enzyme activity inhibition assay (in vitro, fluorimetric); assay type: biochemical; settings: for HDAC6 selectivity (fold): HDAC6 selectivity over HDAC1; for IC50: human recombinant HDAC6, fluorimetric kit, same protocol as HDAC1
T2 construct: purchased Calbiochem 382180
T2 sequence (Q9UBN7 1-1215): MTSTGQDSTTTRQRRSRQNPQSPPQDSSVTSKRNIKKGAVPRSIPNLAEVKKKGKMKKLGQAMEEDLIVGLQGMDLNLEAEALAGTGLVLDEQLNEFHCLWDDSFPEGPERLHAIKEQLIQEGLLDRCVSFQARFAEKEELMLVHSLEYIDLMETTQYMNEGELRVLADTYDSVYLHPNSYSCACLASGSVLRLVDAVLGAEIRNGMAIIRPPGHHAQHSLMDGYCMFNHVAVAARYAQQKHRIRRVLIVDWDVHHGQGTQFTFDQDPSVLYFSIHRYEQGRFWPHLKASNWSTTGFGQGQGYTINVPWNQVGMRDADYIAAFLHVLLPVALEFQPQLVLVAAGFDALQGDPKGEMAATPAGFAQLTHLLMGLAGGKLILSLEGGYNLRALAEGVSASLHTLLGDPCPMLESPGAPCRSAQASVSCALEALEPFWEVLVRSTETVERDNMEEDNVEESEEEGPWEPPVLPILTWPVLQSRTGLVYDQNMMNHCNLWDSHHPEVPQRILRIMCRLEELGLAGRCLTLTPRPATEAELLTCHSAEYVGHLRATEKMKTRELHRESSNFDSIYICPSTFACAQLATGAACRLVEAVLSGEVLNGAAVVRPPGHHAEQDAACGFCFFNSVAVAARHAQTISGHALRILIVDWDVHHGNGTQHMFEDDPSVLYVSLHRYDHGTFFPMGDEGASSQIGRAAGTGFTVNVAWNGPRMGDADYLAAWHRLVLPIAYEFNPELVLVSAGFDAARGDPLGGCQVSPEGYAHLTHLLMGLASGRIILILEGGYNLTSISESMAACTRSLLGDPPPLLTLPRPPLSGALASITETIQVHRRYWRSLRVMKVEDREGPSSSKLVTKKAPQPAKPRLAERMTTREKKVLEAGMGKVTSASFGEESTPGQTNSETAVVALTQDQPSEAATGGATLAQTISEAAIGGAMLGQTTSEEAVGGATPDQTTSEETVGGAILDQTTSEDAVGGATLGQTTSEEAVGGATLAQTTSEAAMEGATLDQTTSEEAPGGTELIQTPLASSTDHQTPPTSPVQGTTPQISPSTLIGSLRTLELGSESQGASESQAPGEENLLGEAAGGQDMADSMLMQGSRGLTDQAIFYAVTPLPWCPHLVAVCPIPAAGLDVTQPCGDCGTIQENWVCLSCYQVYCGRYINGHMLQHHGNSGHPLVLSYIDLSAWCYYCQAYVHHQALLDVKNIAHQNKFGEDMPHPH
How it was run: as §1

T1 sequence (Q13547 whole entry): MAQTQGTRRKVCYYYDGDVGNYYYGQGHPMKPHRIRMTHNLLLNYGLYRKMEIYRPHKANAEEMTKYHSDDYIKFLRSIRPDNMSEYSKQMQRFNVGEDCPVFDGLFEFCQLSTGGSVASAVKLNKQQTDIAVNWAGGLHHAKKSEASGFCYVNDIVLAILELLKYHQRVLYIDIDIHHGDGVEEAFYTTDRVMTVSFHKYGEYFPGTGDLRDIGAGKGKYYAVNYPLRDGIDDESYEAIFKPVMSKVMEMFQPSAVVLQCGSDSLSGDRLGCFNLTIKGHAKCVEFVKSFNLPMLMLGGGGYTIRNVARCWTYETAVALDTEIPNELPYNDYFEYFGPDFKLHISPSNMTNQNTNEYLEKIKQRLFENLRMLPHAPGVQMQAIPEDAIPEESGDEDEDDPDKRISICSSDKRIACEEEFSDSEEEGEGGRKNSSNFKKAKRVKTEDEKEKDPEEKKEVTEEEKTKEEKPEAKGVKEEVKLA

| SMILES | IC50 [1] [nM] | HDAC6 selectivity (fold) [2] [fold] | IC50 [2] [nM] |
| --- | --- | --- | --- |
| C[C@@H]1CN(Cc2ccc(C(=O)NO)cc2)C[C@H](C)N1Cc1ccc(CN2CCOCC2)cc1 [Compound 376, 4-(((3R,5S)-3,5-dimethyl-4-(4-(morpholinomethyl)benzyl)piperazin-1-yl)methyl)-N-hydroxybenzamide] | > 10000 | >119 | 84 |
| C[C@@H]1CN(Cc2ccc(C(=O)NO)cc2)C[C@H](C)N1Cc1cccc(CN2CCCCC2)c1 [Compound 382, 4-(((3R,5S)-3,5-dimethyl-4-(3-(piperidin-1-ylmethyl)benzyl)piperazin-1-yl)methyl)-N-hydroxybenzamide] | > 10000 |  | 83 |
| C[C@@H]1CN(Cc2ccc(C(=O)NO)cc2)C[C@H](C)N1Cc1cccc(CN2CCN(CC(C)(C)O)CC2)c1 [Compound 386, N-hydroxy-4-(((3R,5S)-4-(3-((4-(2-hydroxy-2-methylpropyl)piperazin-1-yl)methyl)benzyl)-3,5-dimethylpiperazin-1-yl)methyl)benzamide] | > 10000 | >77 | 130 |
| C[C@@H]1CN(Cc2ccc(C(=O)NO)cc2)C[C@H](C)N1Cc1ccc(OCC2CCN(CC(C)(C)F)CC2)cc1 [Compound 388, 4-(((3R,5S)-4-(4-((1-(2-fluoro-2-methylpropyl)piperidin-4-yl)methoxy)benzyl)-3,5-dimethylpiperazin-1-yl)methyl)-N-hydroxybenzamide] | 9000 | 109 | 83 |
| C[C@@H]1CN(Cc2cccc(-c3ccoc3)c2)C[C@H](C)N1Cc1ccc(C(=O)NO)cc1 [Compound 396, 4-(((2S,6R)-4-(3-(furan-3-yl)benzyl)-2,6-dimethylpiperazin-1-yl)methyl)-N-hydroxybenzamide] | 1700 | 4 | 406 |
| C[C@@H]1CN(Cc2ccc(C3=CCC(C)(C)CC3)cc2)C[C@H](C)N1Cc1ccc(C(=O)NO)cc1 [Compound 400, 4-(((2S,6R)-4-((4′,4′-dimethyl-2′,3′,4′,5′-tetrahydro-[1,1′-biphenyl]-4-yl)methyl)-2,6-dimethylpiperazin-1-yl)methyl)-N-hydroxybenzamide] | 11300 | 4 | 2820 |
| C[C@@H]1CN(Cc2ccc(C3=CCOCC3)cc2)C[C@H](C)N1Cc1ccc(C(=O)NO)cc1 [Compound 401, 4-(((2S,6R)-4-(4-(3,6-dihydro-2H-pyran-4-yl)benzyl)-2,6-dimethylpiperazin-1-yl)methyl)-N-hydroxybenzamide] | 2000 | 7 | 301 |
| C[C@@H]1CN(Cc2ccc(C(=O)NO)cc2)C[C@H](C)N1C(=O)C1CCCO1 (stereo partly drawn) [Compound 402, 4-(((3R,5S)-3,5-dimethyl-4-(tetrahydrofuran-2-carbonyl)piperazin-1-yl)methyl)-N-hydroxybenzamide] | 5200 | 32 | 161 |
| C[C@@H]1CN(Cc2ccc(C(=O)NO)cc2)C[C@H](C)N1C(=O)c1cc[nH]n1 [Compound 403, 4-(((3R,5S)-3,5-dimethyl-4-(1H-pyrazole-3-carbonyl)piperazin-1-yl)methyl)-N-hydroxybenzamide] | 3200 | 53 | 61 |
| C[C@@H]1CN(Cc2ccc(C(=O)NO)cc2)C[C@H](C)N1C(=O)c1cnccn1 [Compound 404, 4-(((3R,5S)-3,5-dimethyl-4-(pyrazine-2-carbonyl)piperazin-1-yl)methyl)-N-hydroxybenzamide] | 5500 | 30 | 182 |
| C[C@@H]1CN(Cc2ccc(C(=O)NO)cc2)C[C@H](C)N1C(=O)c1cccc(CN2CCCC2)c1 [Compound 423, 4-(((3R,5S)-3,5-dimethyl-4-(3-(pyrrolidin-1-ylmethyl)benzoyl)piperazin-1-yl)methyl)-N-hydroxybenzamide] | 1000 | 22 | 46 |

Second part, the compound after the results:

| IC50 [1] [nM] | HDAC6 selectivity (fold) [2] [fold] | IC50 [2] [nM] | SMILES |
| --- | --- | --- | --- |
| > 10000 | >62 | 162 | C[C@@H]1CN(Cc2ccc(C(=O)NO)cc2)C[C@H](C)N1Cc1cccc(OCC2CCN(CC(C)(C)F)CC2)c1 [Compound 380, 4-(((3R,5S)-4-(3-((1-(2-fluoro-2-methylpropyl)piperidin-4-yl)methoxy)benzyl)-3,5-dimethylpiperazin-1-yl)methyl)-N-hydroxybenzamide] |
| > 10000 | >102 | 98 | C[C@@H]1CN(Cc2ccc(C(=O)NO)cc2)C[C@H](C)N1Cc1cccc(CN2CC[C@@H](F)C2)c1 [Compound 383, 4-(((3R,5S)-4-(3-(((R)-3-fluoropyrrolidin-1-yl)methyl)benzyl)-3,5-dimethylpiperazin-1-yl)methyl)-N-hydroxybenzamide] |
| > 10000 | >94 | 106 | C[C@@H]1CN(Cc2ccc(C(=O)NO)cc2)C[C@H](C)N1Cc1cccc(CN2CC(F)(F)C2)c1 [Compound 384, 4-(((3R,5S)-4-(3-((3,3-difluoroazetidin-1-yl)methyl)benzyl)-3,5-dimethylpiperazin-1-yl)methyl)-N-hydroxybenzamide] |
| > 10000 | >53 | 189 | C[C@@H]1CN(Cc2ccc(C(=O)NO)cc2)C[C@H](C)N1Cc1cccc(CN2CCN(Cc3ccccc3)CC2)c1 [Compound 385, 4-(((3R,5S)-4-(3-((4-benzylpiperazin-1-yl)methyl)benzyl)-3,5-dimethylpiperazin-1-yl)methyl)-N-hydroxybenzamide] |
| > 10000 | >118 | 85 | C[C@@H]1CN(Cc2ccc(C(=O)NO)cc2)C[C@H](C)N1Cc1cccc(CN2CCN(CC(C)(C)F)CC2)c1 [Compound 387, 4-(((3R,5S)-4-(3-((4-(2-fluoro-2-methylpropyl)piperazin-1-yl)methyl)benzyl)-3,5-dimethylpiperazin-1-yl)methyl)-N-hydroxybenzamide] |
| 4300 | 17 | 248 | C[C@@H]1CN(Cc2ccc(C(=O)NO)cc2)C[C@H](C)N1C(=O)c1ccncc1 [Compound 405, N-hydroxy-4-(((3R,5S)-4-isonicotinoyl-3,5-dimethylpiperazin-1-yl)methyl)benzamide] |
| 4300 | 538 | 8 | C[C@@H]1CN(Cc2ccc(C(=O)NO)cc2)C[C@H](C)N1Cc1ccc(CN2CC[C@@H](F)C2)cc1 [Compound 411, 4-(((3R,5S)-4-(4-(((R)-3-fluoropyrrolidin-1-yl)methyl)benzyl)-3,5-dimethylpiperazin-1-yl)methyl)-N-hydroxybenzamide] |
| 1100 | 36 | 32 | C[C@@H]1CN(Cc2ccc(C(=O)NO)cc2)C[C@H](C)N1Cc1ccc(CN2CC(F)(F)C2)cc1 [Compound 412, 4-(((3R,5S)-4-(4-((3,3-difluoroazetidin-1-yl)methyl)benzyl)-3,5-dimethylpiperazin-1-yl)methyl)-N-hydroxybenzamide] |
| > 10000 | >769 | 13 | C[C@@H]1CN(Cc2ccc(C(=O)NO)cc2)C[C@H](C)N1Cc1ccc(CN2CCN(Cc3ccccc3)CC2)cc1 [Compound 413, 4-(((3R,5S)-4-(4-((4-benzylpiperazin-1-yl)methyl)benzyl)-3,5-dimethylpiperazin-1-yl)methyl)-N-hydroxybenzamide] |
| 1200 | 27 | 43 | C[C@@H]1CN(Cc2ccc(C(=O)NO)cc2)C[C@H](C)N1C(=O)c1cccc(CN2CCCCC2)c1 [Compound 424, 4-(((3R,5S)-3,5-dimethyl-4-(3-(piperidin-1-ylmethyl)benzoyl)piperazin-1-yl)methyl)-N-hydroxybenzamide] |
